The supplement of paper PMC10307832

Legend:
Assay in all cases: relative viability (nuclei count vs DMSO), 5 days (fraction); higher = more cells survive
LU99A = system: LU99A
In short: (§1)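 One day after seeding in 1536-well plates, lung cancer cell lines were dosed by pin tool. Dosing was either single-drug or a fixed anchor-drug dose plus five library-drug doses (not always all listed) in √10 steps. After 5 days, nuclei were stained in one fix-and-stain step and counted on 4× images, and relative viability is the nuclei count of treated wells over that of vehicle wells, given as the median of duplicate plates.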

NCI-H1651 = system: NCI-H1651
In short: as §1

SK-MES-1 = system: SK-MES-1
In short: as §1

PC-3 [JPC-3] = system: PC-3 [JPC-3]
In short: as §1

LK-2 = system: LK-2
In short: as §1

NCI-H1355 = system: NCI-H1355
In short: as §1

NCI-H2087 = system: NCI-H2087
In short: as §1

LCLC-97TM1 = system: LCLC-97TM1
In short: as §1

NCI-H661 = system: NCI-H661
In short: as §1

BEN = system: BEN
In short: as §1

NCI-H358 = system: NCI-H358
In short: as §1

NCI-H1666 = system: NCI-H1666
In short: as §1

NCI-H838 = system: NCI-H838
In short: as §1

NCI-H1944 = system: NCI-H1944
In short: as §1

HCC-78 = system: HCC-78
In short: as §1

NCI-H1975 = system: NCI-H1975
In short: as §1

LC-2-ad = system: LC-2-ad
In short: as §1

LXF-289 = system: LXF-289
In short: as §1

NCI-H596 = system: NCI-H596
In short: as §1

NCI-H650 = system: NCI-H650
In short: as §1

In the case of `O=c1cc(-c2cccc3c2Sc2ccccc2S3)oc(N2CCOCC2)c1` + Cc1nc(NC(=O)N2CCC[C@H]2C(N)=O)sc1-c1ccnc(C(C)(C)C(F)(F)F)c1 [Alpelisib] (partner 2 µM), the relative viability (LU99A; first compound 0.08 µM) was 0.507, the relative viability (LU99A; first compound 0.253 µM) was 0.567 and the relative viability (LU99A; first compound 0.8 µM) was 0.747. The relative viability (LU99A; first compound 2.53 µM) was 0.504, the relative viability (LU99A; first compound 8 µM) was 0.575 and the relative viability (NCI-H1651; first compound 0.08 µM) was 1.02. For the same molecule, the relative viability (NCI-H1651; first compound 0.253 µM) was 1.02, the relative viability (NCI-H1651; first compound 0.8 µM) was 1.08 and the relative viability (NCI-H1651; first compound 2.53 µM) was 0.963. It also gave a relative viability (NCI-H1651; first compound 8 µM) of 1.21, a relative viability (SK-MES-1; first compound 0.08 µM) of 0.864 and a relative viability (SK-MES-1; first compound 0.253 µM) of 1.09. The relative viability (SK-MES-1; first compound 0.8 µM) was 0.993, the relative viability (SK-MES-1; first compound 2.53 µM) was 0.824 and the relative viability (SK-MES-1; first compound 8 µM) was 0.845. The relative viability (PC-3 [JPC-3]; first compound 0.08 µM) was 0.994, the relative viability (PC-3 [JPC-3]; first compound 0.253 µM) was 1.04 and the relative viability (PC-3 [JPC-3]; first compound 0.8 µM) was 1.07. It also gave a relative viability (PC-3 [JPC-3]; first compound 2.53 µM) of 0.958, a relative viability (PC-3 [JPC-3]; first compound 8 µM) of 1.03 and a relative viability (LK-2; first compound 0.08 µM) of 1.22. The relative viability (LK-2; first compound 0.253 µM) was 1.11, the relative viability (LK-2; first compound 0.8 µM) was 1.49 and the relative viability (LK-2; first compound 2.53 µM) was 0.995. It also gave a relative viability (LK-2; first compound 8 µM) of 1.75, a relative viability (NCI-H1355; first compound 0.08 µM) of 0.726 and a relative viability (NCI-H1355; first compound 0.253 µM) of 0.949. For the same molecule, the relative viability (NCI-H1355; first compound 0.8 µM) was 0.601, the relative viability (NCI-H1355; first compound 2.53 µM) was 0.748 and the relative viability (NCI-H1355; first compound 8 µM) was 0.704. It also gave a relative viability (NCI-H2087; first compound 0.08 µM) of 1.22, a relative viability (NCI-H2087; first compound 0.253 µM) of 1.19 and a relative viability (NCI-H2087; first compound 0.8 µM) of 1.09. It also gave a relative viability (NCI-H2087; first compound 2.53 µM) of 1.12, a relative viability (NCI-H2087; first compound 8 µM) of 1.03 and a relative viability (LCLC-97TM1; first compound 0.08 µM) of 0.238. For the same molecule, the relative viability (LCLC-97TM1; first compound 0.253 µM) was 0.27, the relative viability (LCLC-97TM1; first compound 0.8 µM) was 0.323 and the relative viability (LCLC-97TM1; first compound 2.53 µM) was 0.205. For the same molecule, the relative viability (LCLC-97TM1; first compound 8 µM) was 0.218, the relative viability (NCI-H661; first compound 0.08 µM) was 0.541 and the relative viability (NCI-H661; first compound 0.253 µM) was 0.753. For the same molecule, the relative viability (NCI-H661; first compound 0.8 µM) was 0.594, the relative viability (NCI-H661; first compound 2.53 µM) was 0.512 and the relative viability (NCI-H661; first compound 8 µM) was 0.98. It also gave a relative viability (BEN; first compound 0.08 µM) of 0.912, a relative viability (BEN; first compound 0.253 µM) of 1.06 and a relative viability (BEN; first compound 0.8 µM) of 1.32. It also gave a relative viability (BEN; first compound 2.53 µM) of 1, a relative viability (BEN; first compound 8 µM) of 1.46 and a relative viability (NCI-H358; first compound 0.08 µM) of 0.776. For the same molecule, the relative viability (NCI-H358; first compound 0.253 µM) was 0.824, the relative viability (NCI-H358; first compound 0.8 µM) was 0.816 and the relative viability (NCI-H358; first compound 2.53 µM) was 0.786. It also gave a relative viability (NCI-H358; first compound 8 µM) of 0.795, a relative viability (NCI-H1666; first compound 0.08 µM) of 0.789 and a relative viability (NCI-H1666; first compound 0.253 µM) of 1.13. It also gave a relative viability (NCI-H1666; first compound 0.8 µM) of 0.82, a relative viability (NCI-H1666; first compound 2.53 µM) of 0.854 and a relative viability (NCI-H1666; first compound 8 µM) of 0.681. The relative viability (NCI-H838; first compound 0.08 µM) was 0.967, the relative viability (NCI-H838; first compound 0.253 µM) was 1.33 and the relative viability (NCI-H838; first compound 0.8 µM) was 0.951. For the same molecule, the relative viability (NCI-H838; first compound 2.53 µM) was 0.903, the relative viability (NCI-H838; first compound 8 µM) was 1.06 and the relative viability (NCI-H1944; first compound 0.08 µM) was 0.793. For the same molecule, the relative viability (NCI-H1944; first compound 0.253 µM) was 0.939, the relative viability (NCI-H1944; first compound 0.8 µM) was 0.736 and the relative viability (NCI-H1944; first compound 8 µM) was 0.751. The relative viability (HCC-78; first compound 0.08 µM) was 0.355, the relative viability (HCC-78; first compound 0.253 µM) was 0.319 and the relative viability (HCC-78; first compound 0.8 µM) was 0.305. It also gave a relative viability (HCC-78; first compound 2.53 µM) of 0.307, a relative viability (HCC-78; first compound 8 µM) of 0.339 and a relative viability (NCI-H1975; first compound 0.08 µM) of 0.722. The relative viability (NCI-H1975; first compound 0.253 µM) was 0.786, the relative viability (NCI-H1975; first compound 0.8 µM) was 0.656 and the relative viability (NCI-H1975; first compound 2.53 µM) was 0.498. It also gave a relative viability (NCI-H1975; first compound 8 µM) of 0.452, a relative viability (LC-2-ad; first compound 0.08 µM) of 0.884 and a relative viability (LC-2-ad; first compound 0.253 µM) of 0.908. The relative viability (LC-2-ad; first compound 0.8 µM) was 0.844, the relative viability (LC-2-ad; first compound 2.53 µM) was 0.806 and the relative viability (LC-2-ad; first compound 8 µM) was 0.75. For the same molecule, the relative viability (LXF-289; first compound 0.08 µM) was 1.1, the relative viability (LXF-289; first compound 0.253 µM) was 1.07 and the relative viability (LXF-289; first compound 0.8 µM) was 1.14. For the same molecule, the relative viability (LXF-289; first compound 2.53 µM) was 1.01, the relative viability (LXF-289; first compound 8 µM) was 1.07 and the relative viability (NCI-H596; first compound 0.08 µM) was 0.588. The relative viability (NCI-H596; first compound 0.253 µM) was 0.55, the relative viability (NCI-H596; first compound 0.8 µM) was 0.5 and the relative viability (NCI-H596; first compound 2.53 µM) was 0.469. For the same molecule, the relative viability (NCI-H596; first compound 8 µM) was 0.594, the relative viability (NCI-H650; first compound 0.08 µM) was 1.1 and the relative viability (NCI-H650; first compound 0.253 µM) was 1.17. For the same molecule, the relative viability (NCI-H650; first compound 0.8 µM) was 1.11, the relative viability (NCI-H650; first compound 2.53 µM) was 1.07 and the relative viability (NCI-H650; first compound 8 µM) was 1.08.
